Test results reported in patent US10689357B2, “N-acylethanolamine hydrolyzing acid amidase (NAAA) inhibitors and use thereof” (Northeastern University, priority 2018, dated 2020).

Target: hNAAA (Homo sapiens (Human), UniProt Q02083)
Assay: NAAA fluorescence-based inhibition assay with PAMCA substrate
Assay type: biochemical
Conditions: purified activated hNAAA, PAMCA 5 μM, pH 4.5, 37° C.
Text: In order to have an assay method more conducive to high-throughput screening than those published for measuring the NAE hydrolyzing activity of NAAA [Proc. Natl. Acad. Sci. USA. 2009; 106(49):20966-71], the fluorogenic PEA analog N-(4-methyl coumarin)palmitamide (PAMCA), which is hydrolyzed to fluorescent 7-amino-4-methyl coumarin (AMC) and palmitic acid, was developed. [J. Proteome Res. 2012; 11(2):972-981], [PloS One. 2012; 7: e43877]. For three point concentration inhibition assays with hNAAA the following procedure was used. Purified activated NAAA (final concentration of 0.25 μg/mL) was incubated in assay buffer (100 mM citrate-phosphate buffer, pH 4.5, 3 mM DTT, 0.1% Triton X-100, 0.05% BSA, and 150 mM NaCl) made up to a total volume of 180 μL, followed by addition of the compound dissolved in 10 μL DMSO (along with DMSO neat for the control sample) with the final concentrations for each compound of 100, 10, and 1 μM, in triplicate on a 96 well plate. These samples were allowed to incubate for 15 min at room temperature and then 10 μL of a PAMCA stock solution in DMSO (final PAMCA concentration [5 μM]) was added. After 5 minutes of agitation on a shaking plate, the reaction was allowed to proceed at 37° C. for 120 minutes, with fluorescence readings taken every 10 minutes at a wavelength of 460 nm (using an excitation wavelength of 360 nm) on a Synergy HT Plate Reader using Gen5 software from Bio-Tek. The enzyme activity was calculated by converting the relative fluorescence units to AMC formed, using a standard curve of AMC.
For compounds that inhibit hNAAA in range IC50<1 μM, full inhibition curves using eight different concentrations of inhibitor (8 point assay) were generated. The assay procedure used was the same as the three point assay. For ostensibly covalent compounds (as observed by a significant decrease in the slope of a plot of fluorescence vs. time in three point screen), samples were allowed to incubate for 2 hours at 37° C., instead of 15 minutes, before addition of 10 μL of a PAMCA stock solution in DMSO for a final PAMCA concentration of 5 μM. After 5 minutes of agitation on a shaking plate, the reaction was allowed to proceed at 37° C. for 120 minutes. Inhibition constants were calculated using pro Fit software (Quantum Soft, Uetikon am See, Switzerland) and a Levenberg-Marquardt algorithm.

Chain of hNAAA (Q02083 29-125): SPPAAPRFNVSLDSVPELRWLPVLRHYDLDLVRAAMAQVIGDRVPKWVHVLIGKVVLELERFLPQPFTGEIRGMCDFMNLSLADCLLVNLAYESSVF
Chain of hNAAA (Q02083 126-359): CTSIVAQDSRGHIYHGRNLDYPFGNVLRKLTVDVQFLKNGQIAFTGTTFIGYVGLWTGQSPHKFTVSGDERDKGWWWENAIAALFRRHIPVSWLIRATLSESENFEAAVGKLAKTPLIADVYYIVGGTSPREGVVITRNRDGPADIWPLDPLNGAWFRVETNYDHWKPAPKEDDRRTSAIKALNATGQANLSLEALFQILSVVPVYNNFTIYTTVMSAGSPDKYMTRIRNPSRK

| SMILES | IC50 |
| --- | --- |
| O=C(CCCCCc1ccccc1)N[C@H]1C[C@@H](N=C=S)C1 [Example 32, N-(1s,3s)-(3-Isothiocyanatocyclobutyl)-6-phenylhexanamide] | 0.01 to 0.1 µM |
| COc1ccc(C#CC(=O)N[C@H]2C[C@@H](N=C=S)C2)cc1 [Example 13, N-((1r, 3r)-3-Isothiocyanatocyclobutyl)-3-(4-methoxyphenyl)propiolamide] | 0.11 to 1 µM |
| COc1ccc(-c2ccc(CO[C@H]3C[C@@H](N=C=S)C3)nc2)nc1 [Example 42, 6′-(((1s,3s)-3-Isothiocyanatocyclobutoxy)methyl)-5-methoxy-2,3′-bipyridine succinate] | 0.01 to 0.1 µM |
| COc1ccc(N2CCC(C(=O)N[C@H]3C[C@@H](N=C=S)C3)CC2)cc1 [Example 17, N-((1r, 3 r)-3-Isothiocyanatocyclobutyl)-1-(4-methoxyphenyl)piperidine-4-carboxamide] | 0.11 to 1 µM |
| COc1ccc(-c2ccc(C(=O)N[C@H]3C[C@@H](N=C=S)C3)nc2)nc1 [Example 34, N-(cis-(3-Isothiocyanatocyclobutyl))-5-methoxy-[2,3′-bipyridine]-6′-carboxamide] | 0.01 to 0.1 µM |
| COc1ccc(-c2ncc(C(=O)N[C@H]3C[C@@H](N=C=S)C3)o2)cc1 [Example 35, N-((cis)-3-isothiocyanatocyclobutyl)-2-(4-methoxyphenyl)oxazole-5-carboxamide] | 0.11 to 1 µM |
| COc1ccc(CCCC(=O)N[C@H]2C[C@@H](N=C=S)C2)cc1 [Example 15, N-((1r, 3r)-3-Isothiocyanatocyclobutyl)-4-(4-methoxyphenyl)butanamide] | 0.01 to 0.1 µM |
| COc1ccc(-c2ccc(S(=O)(=O)O[C@H]3C[C@@H](N=C=S)C3)cc2)cc1 [Example 27, (1s, 3 s)-3-Isothiocyanatocyclobutyl 4′-methoxy-[1,1′-biphenyl]-4-sulfonate] | 0.01 to 0.1 µM |
